Experimental data published in patent publication US20160199320A1, “Ophthalmic Treatments” (Optosolve Research & Development Limited, priority 2011, published 2016).

What was measured:
eye [1] = experiment: pilocarpine drops for constriction of the pupil, with or without tramadol drops; type: in vivo
Protocol: In a first example, an eye was treated with pilocarpine drops to cause constriction of the pupil (in this particular example, as part of an ophthalmic diagnostic procedure, although pilocarpine is also be used therapeutically). Such drops can cause significant discomfort and excessive tear formation, possibly washing pilocarpine out of the eye before it could take effect. […] This implies that the tramadol may well be improving the absorption of other drugs.

eye [2] = experiment: ciclosporin composition with added tramadol, post-operative treatment following a corneal transplant; type: in vivo; settings: addition of 0.5% w/v tramadol to the composition
Text: In a second example, a composition containing ciclosporin would normally be administered to the eye in post-operative treatment following a corneal transplant, to avoid transplant rejection. However, this would lead to significant additional levels of discomfort in the eye.

eye [3] = experiment: eye-drop formulation with tramadol in the left eye of a healthy subject, sensation in the eye; type: in vivo, human; settings: 0.5% w/v tramadol eye-drop
Protocol: In a third example, a conventional ophthalmic eye-drop formulation was made up, but with the addition of 0.5% w/v tramadol. This formulation was administered to the left eye of a healthy subject. […] Sensation in the right eye remained normal.

eye [4] = experiment: fourth example: patient suffering from dry-eye, tramadol eye-drops, artificial tears, or combination; type: in vivo, human; settings: topical
Text: In a fourth example, administration of the tramadol-containing eye-drop formulation of the third example to a patient suffering from “dry-eye” reduced the resultant discomfort as expected. […] However, the discomfort remained, which for many patients would lead to actions such as rubbing the affected eye, counteracting much of the improvement.

eye [5] = experiment: sixth example: tramadol eye-drops in a painful infection of the eye; type: in vivo, human
Text: In a sixth example, an infection of the subject's eye required treatment with antibiotics. However, the subject was unable to open the respective eyelid due to the consequent pain.

eye [6] = experiment: seventh example: tramadol eye-drops in allergic eye disease; type: in vivo, human
Text: In a seventh example, a person presented with an allergic eye disease, resulting in significant prolonged itchiness.

eye [7] = experiment: eighth example: tramadol eye-drops in dry eyes with unstable tear films, tear osmolarity and pain; type: in vivo, human; settings: for pain: dry eye
Text: In an eighth example, a person presented with dry eyes and unstable tear films, typical symptoms of “dry eye”. The patient's tear osmolarity improved, after use of an eye-drop containing 0.5% w/v tramadol in one eye, from 312 milliOsmoles before instillation of the eye drop to 299 milliOsmoles one hour after instillation.

eye [8] = experiment: ninth example: tramadol eye-drops in blepharitis with reduced tear break-up time; type: in vivo, human; settings: eye-drops containing 1.0% w/v tramadol
Text: In a ninth example, a middle-aged person with blepharitis and no corneal staining but a reduced tear break-up time was given eye-drops containing 1.0% w/v tramadol.

undamaged eye = settings: topically applied to an undamaged eye; cited from earlier work
[9] = drops containing tramadol administered before or in conjunction with the pilocarpine drops
[10] = tramadol 0.5% w/v where present
[11] = eye-drop formulation comprising 0.5% w/v tramadol
[12] = middle-aged person with blepharitis

**Q.** With `COc1cccc(C2(O)CCCCC2CN(C)C)c1` (centres unmarked) [tramadol] as the compound, how does the “discomfort caused by pilocarpine drops” value (eye [1]; [9]) read?
**A.** greatly reduced

**Q.** What about the “tear formation caused by pilocarpine drops” value (eye [1]; [9]) of the same compound?
**A.** greatly reduced

**Q.** What about the “effectiveness of the ciclosporin” value (eye [2]) of the same compound?
**A.** improve

**Q.** And the “discomfort in the eye from ciclosporin composition” value (eye [2]; post corneal transplant)?
**A.** significantly reduce

**Q.** What about the “duration of numbing effect” value (eye [3]) of the same compound?
**A.** at least 110 minutes

**Q.** And the side-effects (eye [3])?
**A.** No side-effects were noted

**Q.** What about the “time to noticeably reduced sensation in the eye after instillation” value (eye [3]) of the same compound?
**A.** ≤ 3 min

**Q.** And the blinking (eye [4]; tramadol 0.5% w/v)?
**A.** reduction in blinking

**Q.** And the discomfort / pain (eye [4]; [10])?
**A.** reduced

**Q.** And the “dryness / lubrication of the eye” value (eye [4]; [10])?
**A.** dryness remained

**Q.** What about the “physical signs (symptoms and signs)” value (eye [4]; [10]) of the same compound?
**A.** did not improve

**Q.** And the “resolution of the infection” value (eye [5]; 0.5% w/v tramadol followed by antibiotics)?
**A.** more rapidly than would have been expected

**Q.** What about the discomfort (eye [5]; [11]) of the same compound?
**A.** rapidly reduced

**Q.** And the “opening of the eyelid” value (eye [5]; [11])?
**A.** permitting opening of the eyelid

**Q.** And the “vision in the treated eye” value (eye [5]; [11])?
**A.** allowed reasonable vision

**Q.** What about the associated redness (eye [6]; allergic eye disease, eye-drop containing 0.5% w/v tramadol, versus saline drops alone) of the same compound?
**A.** improved with time faster than for the conventional treatment with saline drops alone

**Q.** And the itchiness (eye [6]; allergic eye disease, person, eye-drop containing 0.5% w/v tramadol)?
**A.** improved within a few minutes

**Q.** What about the “results in allergic eye disease (itchiness, redness)” value (eye [6]; eye-drop containing 1.0% w/v tramadol, compared with 0.5% w/v) of the same compound?
**A.** even more rapid and effective results

**Q.** What about the pain (eye [7]; eye-drop containing 0.5% w/v tramadol) of the same compound?
**A.** reduced

**Q.** What about the pain (eye [7]; eye-drop containing 1.0% w/v tramadol) of the same compound?
**A.** reduced the patient's pain further

**Q.** What about the tear osmolarity (eye [7]; one hour after instillation of eye-drop containing 0.5% w/v tramadol, 312 milliOsmoles before instillation, person with dry eye) of the same compound?
**A.** 299 milliOsmoles

**Q.** What about the blepharitis (eye [8]; middle-aged male) of the same compound?
**A.** improved

**Q.** And the irritable symptoms (eye [8]; [12])?
**A.** improvement

**Q.** And the tear break-up time (eye [8]; [12])?
**A.** improved, and so did the tear break-up time

**Q.** For `CC[C@@H]1C(=O)OC[C@@H]1Cc1cncn1C` [pilocarpine], which “effectiveness in constriction of the pupil” value (eye [1]; 0.5% w/v pilocarpine administered promptly after or in conjunction with tramadol) is on record?
**A.** as effective as 1% w/v pilocarpine administered without tramadol present

**Q.** For `CN1CC[C@]23c4c5ccc(O)c4O[C@H]2[C@@H](O)C=C[C@H]3[C@H]1C5` [morphine], which analgesic effect (undamaged eye) is on record?
**A.** very little or no analgesic effect
